Here are results for 14 molecules from patent publication USRE49850E1, “N-(pyridin-2-yl)-4-(thiazol-5-yl)pyrimidin-2-amine derivatives as therapeutic compounds” (AUCENTRA THERAPEUTICS PTY LTD, priority 2015, dated 2024).

As usually defined, the GI50 is the concentration that inhibits growth by half.

In one assay the test system is MDA-MB-453. The experiment in a line: Cell viability assay (MTT, solid tumour cell line) MDA-MB-453. In kind it is cell-based, human. The settings on record: Homo sapiens, MDA-MB-453, 72 h; read-out: Anti-proliferative activity GI50 MDA-MB-453. The text has this:
(§1) Compounds from Example 1 were subjected to a standard MTT (3-(4,5-dimethylthiazol-2-yl)-2,5-diphenyltetrazolium bromide) and resazurin assays on solid tumour cell lines and leukemia cell lines, respectively, as previously reported (Wang S et al., J Med Chem 47:1662-1675, 2004 and Diab S. et al. CheMedChem 9:962-972, 2014).

A further assay deals with CDK 2A (Homo sapiens, UniProt P24941). Put plainly: Kinase assay CDK2A (radiometric profiling service). In kind it is biochemical. Particulars: apparent Ki calculated from Km (ATP) and IC50; read-out: CDK inhibition Ki CDK 2A. The method, boiled down:
(§2)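 CDK7, CDK2 and CDK1 inhibition was measured by an external radiometric profiling service; CDK4/D1 by radiometric or in-house ADP-Glo assay with RB-CTF substrate in […] pH 7.5, 20 mM MgCl2, 0.4 mM DTT, 0.1 mg/ml BSA, for 40 min at 37° C. IC50 came from four-parameter fits; Ki from IC50 and Km (ATP).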

The next assay has as its target CDK1B (Homo sapiens, UniProt P06493). Put plainly: Kinase assay CDK1B (radiometric profiling service). In kind it is biochemical. The settings on record: apparent Ki calculated from Km (ATP) and IC50; read-out: CDK inhibition Ki CDK1B. The method, boiled down:
as §2

A further assay concerns MV4-11. The experiment in a line: Cell viability assay (resazurin, leukemia cell line) MV4-11. In kind it is cell-based, human. The settings on record: Homo sapiens, MV4-11, 72 h; read-out: Anti-proliferative activity GI50 MV4-11.
Excerpt: as §1
For orientation: Alamar Blue is a resazurin reagent that responds to reducing activity.

The target of the next assay is CDK7H (Homo sapiens, UniProt P50613). The experiment in a line: Kinase assay CDK7H (radiometric profiling service). Particulars: apparent Ki calculated from Km (ATP) and IC50; read-out: CDK inhibition Ki CDK7H. It counts as biochemical. As for the experimental part:
Eurofins Pharma Discovery or Reaction Biology Corporation Kinase Profiler services were used to measure inhibition of CDKs and other kinases by radiometric assay. Inhibition of CDK4/D1, CDK6/D3 and CDK9/T1 were also determined in-house using ADP Glo Kinase assays (Promega Corporation, Madison, USA). Briefly, the kinase reaction for CDK4/D1 and CDK6/D3 was performed with kinase reaction buffer ([…] Tris base pH 7.5, 20 mM MgCl2, 0.4 mM DTT), 0.1 mg/ml BSA and RB-CTF substrate (retinoblastoma protein1 C-terminal fraction). For CDK9/CyclinT1, the kinase reaction was performed with standard assay buffer and Kinase Dilution Buffer and RBER-IRStide substrate. Serial dilutions of 1:3 were prepared for test compounds for 10 concentrations (from 10 μM to 0.5 nM). The kinase reactions were started by addition of ATP, incubated for 40 min at 37° C. and then stopped by adding 10 μL of ADP Glo reagent. After incubation at room temperature in the dark for 40 min, 20 μL of kinase detection reagent was added per well and incubated for 40 min. Luminescence was measured using an EnVision Multilabel plate reader (PerkinElmer, Buckinghamshire, UK). Positive and negative controls were perfonned in the presence and absence of CDK kinases, respectively. Half-maximal inhibition (IC50) values were calculated using a 4-parameter logistic non-linear regression model with Graphpad prism (Version 6.0). Apparent inhibition constants (Ki) values were calculated from Km (ATP) and IC50 values for the respective kinases.

Another assay has as its target T1, CDK6D3 (Homo sapiens, UniProt Q00534).
T1 construct: purchased Eurofins Pharma Discovery or Reaction Biology Corporation (service)
The experiment in a line: Kinase assay CDK6/D3 (radiometric or ADP Glo). In kind it is biochemical. Particulars: apparent Ki calculated from Km (ATP) and IC50; read-out: CDK inhibition Ki CDK6D3. The procedure, abridged: (§3)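 Radiometric inhibition data for CDKs came from Eurofins or Reaction Biology profiling services; CDK4/D1 was also run in-house by ADP-Glo in […] pH 7.5, 20 mM MgCl2, 0.4 mM DTT, 0.1 mg/ml BSA with RB-CTF substrate, 40 min at 37 °C after ATP start. Ten-point 1:3 dilutions (10 μM–0.5 nM); four-parameter IC50, Ki from IC50 and ATP Km.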

The next assay deals with T2, CDK9T1 (Homo sapiens, UniProt P50750).
T2 construct: purchased Eurofins Pharma Discovery or Reaction Biology Corporation (service)
T2 sequence (P50750 whole entry): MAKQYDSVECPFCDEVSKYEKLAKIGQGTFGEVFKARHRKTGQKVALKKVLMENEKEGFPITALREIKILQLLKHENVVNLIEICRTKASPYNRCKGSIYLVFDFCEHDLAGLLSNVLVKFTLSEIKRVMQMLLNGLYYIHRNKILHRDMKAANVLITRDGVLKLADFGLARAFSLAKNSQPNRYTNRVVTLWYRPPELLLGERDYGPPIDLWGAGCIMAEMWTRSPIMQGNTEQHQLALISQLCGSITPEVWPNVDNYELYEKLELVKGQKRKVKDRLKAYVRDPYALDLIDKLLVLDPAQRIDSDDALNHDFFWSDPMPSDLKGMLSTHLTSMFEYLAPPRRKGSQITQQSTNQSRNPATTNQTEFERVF
T2 sequence (O60563 whole entry partner): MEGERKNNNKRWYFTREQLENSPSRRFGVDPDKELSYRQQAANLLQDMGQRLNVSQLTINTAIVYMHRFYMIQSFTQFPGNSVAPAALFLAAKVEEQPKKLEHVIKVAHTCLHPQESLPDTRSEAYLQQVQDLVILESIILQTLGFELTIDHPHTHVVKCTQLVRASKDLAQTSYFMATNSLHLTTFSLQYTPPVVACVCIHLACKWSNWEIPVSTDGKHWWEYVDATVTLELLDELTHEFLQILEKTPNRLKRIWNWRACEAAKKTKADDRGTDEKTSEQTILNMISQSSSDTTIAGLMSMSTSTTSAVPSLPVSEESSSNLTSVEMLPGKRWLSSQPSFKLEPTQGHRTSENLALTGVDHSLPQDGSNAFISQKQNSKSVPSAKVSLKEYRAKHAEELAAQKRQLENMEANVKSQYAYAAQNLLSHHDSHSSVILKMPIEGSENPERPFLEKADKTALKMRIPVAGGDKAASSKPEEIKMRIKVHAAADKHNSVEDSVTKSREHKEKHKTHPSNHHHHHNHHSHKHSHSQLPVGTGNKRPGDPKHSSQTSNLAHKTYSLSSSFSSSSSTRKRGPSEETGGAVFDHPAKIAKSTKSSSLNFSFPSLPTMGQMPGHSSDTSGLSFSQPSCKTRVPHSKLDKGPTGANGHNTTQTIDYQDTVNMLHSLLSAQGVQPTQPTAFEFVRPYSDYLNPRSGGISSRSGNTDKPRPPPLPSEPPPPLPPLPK
Put plainly: Kinase assay CDK9/T1 (radiometric or ADP Glo). Particulars: apparent Ki calculated from Km (ATP) and IC50; read-out: CDK inhibition Ki CDK9T1. It counts as biochemical. The procedure, abridged: as §3

Another assay addresses T3, CDK4D1 (Homo sapiens, UniProt P11802).
T3 construct: purchased Eurofins Pharma Discovery or Reaction Biology Corporation (service)
The experiment in a line: Kinase assay CDK4/D1 (radiometric or ADP Glo). In kind it is biochemical. The settings on record: apparent Ki calculated from Km (ATP) and IC50; read-out: CDK inhibition Ki CDK4D1. The procedure, abridged: as §2

A value given as a limit tells only on which side of the number the result lay.

T1 sequence (Q00534 whole entry): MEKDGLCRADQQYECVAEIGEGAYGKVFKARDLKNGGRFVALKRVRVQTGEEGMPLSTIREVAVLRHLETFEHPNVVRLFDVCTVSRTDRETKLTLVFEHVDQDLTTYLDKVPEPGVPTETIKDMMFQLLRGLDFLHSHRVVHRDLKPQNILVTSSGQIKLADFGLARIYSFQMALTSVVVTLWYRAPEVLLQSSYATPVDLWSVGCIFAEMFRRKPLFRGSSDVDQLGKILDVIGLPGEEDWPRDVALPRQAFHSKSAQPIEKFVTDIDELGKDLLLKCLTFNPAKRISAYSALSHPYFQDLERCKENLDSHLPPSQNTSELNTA
T1 sequence (P30281 whole entry partner): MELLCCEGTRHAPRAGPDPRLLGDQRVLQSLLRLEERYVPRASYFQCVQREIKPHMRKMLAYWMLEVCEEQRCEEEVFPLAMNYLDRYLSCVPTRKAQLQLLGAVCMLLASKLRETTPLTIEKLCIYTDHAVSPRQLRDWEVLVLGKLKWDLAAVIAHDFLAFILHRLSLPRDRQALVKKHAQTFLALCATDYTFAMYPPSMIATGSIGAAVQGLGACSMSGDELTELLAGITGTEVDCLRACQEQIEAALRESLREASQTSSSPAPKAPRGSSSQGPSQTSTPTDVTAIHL
Sequence of CDK7H (P50613 whole entry): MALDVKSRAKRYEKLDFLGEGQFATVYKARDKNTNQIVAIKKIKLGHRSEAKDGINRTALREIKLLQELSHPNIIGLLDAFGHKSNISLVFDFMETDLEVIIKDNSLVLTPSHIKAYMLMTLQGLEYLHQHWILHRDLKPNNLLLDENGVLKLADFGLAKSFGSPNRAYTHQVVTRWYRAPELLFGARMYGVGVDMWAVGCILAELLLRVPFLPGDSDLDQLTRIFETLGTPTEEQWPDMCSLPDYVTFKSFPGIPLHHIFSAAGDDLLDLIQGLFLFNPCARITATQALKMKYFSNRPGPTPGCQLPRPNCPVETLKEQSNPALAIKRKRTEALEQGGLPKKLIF
Sequence of CDK7H (P51946 whole entry partner): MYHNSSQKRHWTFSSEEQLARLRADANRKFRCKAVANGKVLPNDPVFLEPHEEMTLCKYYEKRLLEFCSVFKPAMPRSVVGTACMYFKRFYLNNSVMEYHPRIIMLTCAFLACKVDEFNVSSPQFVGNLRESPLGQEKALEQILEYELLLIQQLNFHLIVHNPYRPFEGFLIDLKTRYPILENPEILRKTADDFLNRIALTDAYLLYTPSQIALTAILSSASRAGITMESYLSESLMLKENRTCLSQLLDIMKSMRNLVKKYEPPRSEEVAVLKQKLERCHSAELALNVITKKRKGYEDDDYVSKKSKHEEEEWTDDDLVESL
Sequence of CDK7H (P51948 whole entry partner): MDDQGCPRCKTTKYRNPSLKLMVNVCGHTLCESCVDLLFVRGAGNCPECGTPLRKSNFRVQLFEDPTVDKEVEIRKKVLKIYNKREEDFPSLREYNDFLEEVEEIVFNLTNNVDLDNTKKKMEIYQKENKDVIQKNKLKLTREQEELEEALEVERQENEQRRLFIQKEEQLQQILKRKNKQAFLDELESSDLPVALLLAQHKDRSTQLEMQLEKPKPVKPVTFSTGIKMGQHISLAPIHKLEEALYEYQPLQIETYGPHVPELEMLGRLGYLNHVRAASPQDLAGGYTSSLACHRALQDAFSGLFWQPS
Sequence of CDK1B (P06493 whole entry): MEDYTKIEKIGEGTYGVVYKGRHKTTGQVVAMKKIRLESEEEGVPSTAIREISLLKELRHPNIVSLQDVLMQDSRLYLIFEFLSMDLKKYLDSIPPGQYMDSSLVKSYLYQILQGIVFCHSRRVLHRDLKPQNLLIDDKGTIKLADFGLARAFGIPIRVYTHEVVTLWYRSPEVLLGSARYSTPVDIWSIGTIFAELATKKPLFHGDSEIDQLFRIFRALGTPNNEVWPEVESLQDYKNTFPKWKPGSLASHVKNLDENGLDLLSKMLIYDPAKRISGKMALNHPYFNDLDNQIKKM
Sequence of CDK1B (P14635 whole entry partner): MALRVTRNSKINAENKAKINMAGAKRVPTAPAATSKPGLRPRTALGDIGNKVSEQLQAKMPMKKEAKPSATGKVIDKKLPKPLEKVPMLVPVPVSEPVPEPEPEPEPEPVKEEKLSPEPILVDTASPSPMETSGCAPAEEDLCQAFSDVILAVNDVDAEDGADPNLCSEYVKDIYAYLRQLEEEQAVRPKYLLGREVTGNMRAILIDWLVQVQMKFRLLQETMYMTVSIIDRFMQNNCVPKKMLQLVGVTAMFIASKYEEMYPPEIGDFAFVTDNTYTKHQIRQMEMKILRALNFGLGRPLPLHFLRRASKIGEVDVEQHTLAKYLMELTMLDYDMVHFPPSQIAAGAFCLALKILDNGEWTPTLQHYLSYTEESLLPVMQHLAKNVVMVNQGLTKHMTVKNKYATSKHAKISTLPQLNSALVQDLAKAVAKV
T3 sequence (P11802 whole entry): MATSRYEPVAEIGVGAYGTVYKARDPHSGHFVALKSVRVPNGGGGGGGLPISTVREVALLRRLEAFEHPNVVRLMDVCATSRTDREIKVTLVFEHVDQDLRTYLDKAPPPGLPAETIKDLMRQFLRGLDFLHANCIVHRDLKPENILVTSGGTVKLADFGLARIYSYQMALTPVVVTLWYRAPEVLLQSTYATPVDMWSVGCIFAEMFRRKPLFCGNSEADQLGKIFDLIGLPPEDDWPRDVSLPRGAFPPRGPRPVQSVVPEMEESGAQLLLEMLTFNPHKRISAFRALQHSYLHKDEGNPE
T3 sequence (P24385 whole entry partner): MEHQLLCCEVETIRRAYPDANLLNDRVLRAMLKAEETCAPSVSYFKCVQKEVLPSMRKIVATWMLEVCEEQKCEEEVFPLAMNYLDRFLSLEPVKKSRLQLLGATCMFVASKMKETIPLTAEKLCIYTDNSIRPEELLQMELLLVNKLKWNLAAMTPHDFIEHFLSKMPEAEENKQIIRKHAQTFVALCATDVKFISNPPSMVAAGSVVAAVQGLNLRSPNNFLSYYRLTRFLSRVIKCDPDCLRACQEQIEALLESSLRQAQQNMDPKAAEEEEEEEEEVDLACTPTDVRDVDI

With `Cc1nc(C)c(-c2nc(Nc3ccc(N4CCNCC4)cn3)ncc2C#N)s1` [Compound 4, 4-(2,4-dimethylthiazol-5-yl)-2-((5-(piperazin-1-yl)pyridin-2-yl)amino)pyrimidine-5-carbonitrile], the 50% growth inhibitory concentration (GI50) in the assay with MDA-MB-453 came out at 1970 ± 404 nM; in the assay with MV4-11 it was 296 ± 287 nM. In addition, the Ki was above 5000 nM at CDK 2A; above 5 µM at CDK1B; above 5 µM at CDK7H; 117 nM at CDK6D3; 2.04 µM on CDK9T1; 31 nM on CDK4D1.

As to `Cc1nc(C)c(-c2nc(Nc3ccc(N4CCN(C)CC4)cn3)ncc2C#N)s1` [Compound 5, 4-(2,4-dimethylthiazol-5-yl)-2-((5-(4-methylpiperazin-1-yl)pyridin-2-yl)amino)pyrimidine-5-carbonitrile], the results for the 50% growth inhibitory concentration (GI50) in the assay with MDA-MB-453 and with MV4-11 were 914 ± 98 nM and 500 ± 247 nM, respectively. Further, the Ki at CDK 2A was above 5000 nM; at CDK1B, above 5 µM; at CDK7H it was above 5 µM; at CDK6D3, 27 nM; at CDK9T1 it was above 5 µM; at CDK4D1 it was 70 nM.

On to `CC(=O)N1CCN(c2ccc(Nc3ncc(C#N)c(-c4sc(C)nc4C)n3)nc2)CC1` [Compound 6, 2-((5-(4-acetylpiperazin-1-yl)pyridin-2-yl)amino)-4-(2,4-dimethylthiazol-5-yl)pyrimidine-5-carbonitrile], for which the concentration for 50% growth inhibition (GI50) was above 10000 nM in the assay with MDA-MB-453 and 2130 ± 969 nM in the assay with MV4-11. Besides, the Ki on CDK 2A is above 5000 nM; on CDK1B, above 5 µM; at CDK7H, above 5 µM; on CDK6D3, 201 nM; on CDK9T1, above 5 µM; on CDK4D1, 119 nM.

As for `CCc1nc(C)c(-c2ccnc(Nc3ccc(N4CCNCC4)cn3)n2)s1` [Compound 7, 4-(2-ethyl-4-methylthiazol-5-yl)-N-(5-(piperazin-1-yl)pyridin-2-yl)pyrimidin-2-amine], the GI50 in the assay with MDA-MB-453 was 3860 ± 220 nM; with MV4-11, 606 ± 150 nM. For the same molecule, the Ki at CDK 2A was 1710 nM; at CDK1B, above 5 µM; on CDK7H, above 5 µM; on CDK6D3 it was 237 nM; on CDK9T1 it was above 5 µM; on CDK4D1 it was 59 nM.

In the case of `CCc1nc(C)c(-c2ccnc(Nc3ccc(N4CCN(C)CC4)cn3)n2)s1` [Compound 8, 4-(2-ethyl-4-methylthiazol-5-yl)-N-(5-(4-methylpiperazin-1-yl)pyridin-2-yl)pyrimidin-2-amine], the figures for the concentration for 50% growth inhibition (GI50) in the assay on MDA-MB-453 and in the assay with MV4-11 were 3010 ± 705 nM and 750 ± 246 nM, respectively. The Ki was 1820 nM on CDK 2A; above 5 µM at CDK1B; above 5 µM on CDK7H; 980 nM on CDK6D3; above 5 µM at CDK9T1; 24 nM on CDK4D1.

As for `Cc1nc(C(C)C)sc1-c1ccnc(Nc2ccc(N3CCNCC3)cn2)n1` [Compound 13, 4-(2-isopropyl-4-methylthiazol-5-yl)-N-(5-(piperazin-1-yl)pyridin-2-yl)pyrimidin-2-amine], the concentration for 50% growth inhibition (GI50) with MDA-MB-453 came to 703 ± 71 nM; in the assay on MV4-11 it was 29 ± 19 nM. The Ki was 241 nM on CDK 2A; 3.74 µM on CDK1B; above 5 µM on CDK7H; 30 nM at CDK6D3; above 5 µM at CDK9T1; 11 nM on CDK4D1.

On to `Cc1nc(C(C)C)sc1-c1ccnc(Nc2ccc(N3CCN(C)CC3)cn2)n1` [Compound 14, 4-(2-isopropyl-4-methylthiazol-5-yl)-N-(5-(4-methylpiperazin-1-yl)pyridin-2-yl)pyrimidin-2-amine], for which the GI50 in the assay with MDA-MB-453 was above 10000 nM; in the assay with MV4-11, 596 ± 231 nM. Besides, the Ki on CDK 2A was 287 nM; on CDK1B it was 3.41 µM; on CDK7H, above 5 µM; on CDK6D3 it was 29 nM; at CDK9T1 it was 4.18 µM; on CDK4D1, 10 nM.

Take `CCN1CCN(c2ccc(Nc3nccc(-c4sc(C(C)C)nc4C)n3)nc2)CC1` [Compound 15, N-(5-(4-ethylpiperazin-1-yl)pyridin-2-yl)-4-(2-isopropyl-4-methylthiazol-5-yl)pyrimidin-2-amine]: the GI50 in the assay on MDA-MB-453 was found to be 542 ± 65 nM; with MV4-11, 63 ± 26 nM. For the same molecule, the Ki was 465 nM at CDK 2A; 3.1 µM on CDK1B; above 5 µM at CDK7H; 25 nM on CDK6D3; above 5 µM at CDK9T1; 5 nM on CDK4D1.

For `CC(=O)N1CCN(c2ccc(Nc3nccc(-c4sc(C(C)C)nc4C)n3)nc2)CC1` [Compound 16, 1-(4-(6-((4-(2-isopropyl-4-methylthiazol-5-yl)pyrimidin-2-yl)amino)pyridin-3-yl)piperazin-1-yl)ethan-1-one], the figures for the GI50 in the assay with MDA-MB-453 and in the assay on MV4-11 were above 10000 nM and 457 ± 122 nM, respectively. Besides, the Ki was 246 nM on CDK 2A; 4.85 µM on CDK1B; above 5 µM on CDK7H; 209 nM at CDK6D3; above 5 µM on CDK9T1; 62 nM on CDK4D1.

Consider `Cc1nc(C(C)C)sc1-c1ccnc(Nc2ccc(N3CCOCC3)cn2)n1` [Compound 17, 4-(2-isopropyl-4-methylthiazol-5-yl)-N-(5-morpholinopyridin-2-yl)pyrimidin-2-amine], for which the figures for the 50% growth inhibitory concentration (GI50) with MDA-MB-453 and in the assay on MV4-11 were 1050 ± 203 nM and 649 ± 24 nM, respectively. For the same molecule, the Ki is 60 nM on CDK 2A; 1.44 µM at CDK1B; 4.69 µM on CDK7H; 4 nM at CDK6D3; 1.73 µM on CDK9T1; 1 nM at CDK4D1.

In the case of `CCN1CCN(Cc2ccc(Nc3nccc(-c4sc(C(C)C)nc4C)n3)nc2)CC1` [Compound 18, N-(5-((4-ethylpiperazin-1-yl)methyl)pyridin-2-yl)-4-(2-isopropyl-4-methylthiazol-5-yl)pyrimidin-2-amine], the 50% growth inhibitory concentration (GI50) was 166 ± 117 nM in the assay on MDA-MB-453 and 418 ± 23 nM with MV4-11. Further, the Ki is 775 nM at CDK 2A; above 5 µM at CDK1B; above 5 µM on CDK7H; 394 nM at CDK6D3; above 10 µM on CDK9T1; 28 nM at CDK4D1.

Take `COc1nc(C)c(-c2ccnc(Nc3ccc(N4CCN(C)CC4)cn3)n2)s1` [Compound 19, 4-(2-methoxy-4-methylthiazol-5-yl)-N-(5-(4-methylpiperazin-1-yl)pyridin-2-yl)pyrimidin-2-amine]: the GI50 in the assay with MDA-MB-453 was above 10000 nM; in the assay on MV4-11 it was 3520 ± 1040 nM. Further, the Ki at CDK 2A was 3650 nM; on CDK1B, above 5 µM; on CDK7H, above 5 µM; on CDK6D3, 935 nM; at CDK9T1, 4.76 µM; at CDK4D1, 310 nM.

With `CSc1nc(C)c(-c2ccnc(Nc3ccc(N4CCNCC4)cn3)n2)s1` [Compound 20, 4-(4-Methyl-2-(methylthio)thiazol-5-yl)-N-(5-(piperazin-1-yl)pyridin-2-yl)pyrimidin-2-amine], the concentration for 50% growth inhibition (GI50) in the assay with MDA-MB-453 is 3140 ± 173 nM; in the assay on MV4-11, 671 ± 91 nM. Moreover, the Ki at CDK 2A was 720 nM; at CDK1B, above 5 µM; at CDK7H it was above 5 µM; at CDK6D3, 20 nM; at CDK9T1, 4.53 µM; on CDK4D1, 5 nM.

Regarding `CSc1nc(C)c(-c2ccnc(Nc3ccc(N4CCN(C)CC4)cn3)n2)s1` [Compound 21, 4-(4-methyl-2-(methylthio)thiazol-5-yl)-N-(5-(4-methylpiperazin-1-yl)pyridin-2-yl)pyrimidin-2-amine], the GI50 in the assay with MDA-MB-453 was 7160 ± 886 nM; with MV4-11 it was 456 ± 66 nM. Also, the Ki is 2700 nM on CDK 2A; above 5 µM at CDK1B; above 5 µM on CDK7H; 42 nM on CDK6D3; above 5 µM on CDK9T1; 7 nM on CDK4D1.
